Results taken from ChEMBL document CHEMBL5696441 (Nat Chem Biol, 2011).

Tests used:
[1] = target: Homeodomain-interacting protein kinase 1 (Homo sapiens) (UniProt Q86Z02); assay: Inhibition of HIPK1 (unknown origin) assessed as remaining activity at 1 uM by Kinome scan method relative to control
[2] = target: Homeodomain-interacting protein kinase 2 (Homo sapiens) (UniProt Q9H2X6); assay: Inhibition of human HIPK2 assessed as residual activity at 1 uM using RBER-CHKtide as substrate in presence of 33P-ATP by ProQinase assay relative to control
[3] = target: Cyclin-dependent kinase 19 (Homo sapiens) (UniProt Q9BWU1); assay: Inhibition of CDK11 (unknown origin) assessed as remaining activity at 1 uM by Kinome scan method relative to control
[4] = test system: Tyrosine-protein kinase ABL1 (Homo sapiens), P00519 [F317I]; assay: Inhibition of human ABL1 F317I mutant assessed as residual activity at 1 uM using Poly(Ala,Glu,Lys,Tyr)6:2:5:1 as substrate in presence of 33P-ATP by ProQinase assay relative to control
[5] = target: Serine/threonine-protein kinase Nek9 (Homo sapiens) (UniProt Q8TD19); assay: Inhibition of human NEK9 assessed as residual activity at 1 uM using RBER-GSK3 as substrate in presence of 33P-ATP by ProQinase assay relative to control
[6] = target: Inhibitor of nuclear factor kappa-B kinase subunit beta (Homo sapiens) (UniProt O14920); assay: Inhibition of human IKKbeta assessed as residual activity at 1 uM using RBER-CHKtide as substrate in presence of 33P-ATP by ProQinase assay relative to control
[7] = target: Glycogen synthase kinase-3 alpha (Homo sapiens) (UniProt P49840); assay: Inhibition of GSK3alpha (unknown origin) assessed as remaining activity at 1 uM by Kinome scan method relative to control
[8] = target: Serine/threonine-protein kinase NIM1 (Homo sapiens) (UniProt Q8IY84); assay: Inhibition of NIM1 (unknown origin) assessed as remaining activity at 1 uM by Kinome scan method relative to control
[9] = test system: Mast/stem cell growth factor receptor Kit (Homo sapiens), P10721 [V559D,T670I]; assay: Inhibition of KIT V559D/T670I mutant (unknown origin) assessed as remaining activity at 1 uM by Kinome scan method relative to control
[10] = target: Ephrin type-A receptor 7 (Homo sapiens) (UniProt Q15375); assay: Inhibition of human EPHA7 assessed as residual activity at 1 uM using polyEy as substrate in presence of 33P-ATP by ProQinase assay relative to control
[11] = target: DNA-dependent protein kinase catalytic subunit (Homo sapiens) (UniProt P78527); assay: Inhibition of human DNPK1 assessed as residual activity at 1 uM using RBER-GSK3 as substrate in presence of 33P-ATP by ProQinase assay relative to control
[12] = target: Hepatocyte growth factor receptor (Homo sapiens) (UniProt P08581); assay: Inhibition of human MET assessed as residual activity at 1 uM using poly(Ala,Glu,Lys,Tyr)6:2:5:1 as substrate in presence of 33P-ATP by ProQinase assay relative to control
[13] = target: Tyrosine-protein kinase Fgr (Homo sapiens) (UniProt P09769); assay: Inhibition of FGR (unknown origin) assessed as remaining activity at 1 uM by Kinome scan method relative to control
[14] = target: Myosin-IIIa (Homo sapiens) (UniProt Q8NEV4); assay: Inhibition of MYO3A (unknown origin) assessed as remaining activity at 1 uM by Kinome scan method relative to control
[15] = target: Dual specificity protein kinase CLK4 (Homo sapiens) (UniProt Q9HAZ1); assay: Inhibition of CLK4 (unknown origin) assessed as remaining activity at 1 uM by Kinome scan method relative to control
[16] = target: Serine/threonine-protein kinase Chk2 (Homo sapiens) (UniProt O96017); assay: Inhibition of CHEK2 (unknown origin) assessed as remaining activity at 1 uM by Kinome scan method relative to control
[17] = target: Mitogen-activated protein kinase kinase kinase 5 (Homo sapiens) (UniProt Q99683); assay: Inhibition of human ASK1 assessed as residual activity at 1 uM using RBER-GSK3(14-27) as substrate in presence of 33P-ATP by ProQinase assay relative to control
[18] = target: Protein-tyrosine kinase 6 (Homo sapiens) (UniProt Q13882); assay: Inhibition of human BRK assessed as residual activity at 1 uM using PolyEY as substrate in presence of 33P-ATP by ProQinase assay relative to control
[19] = target: Mitogen-activated protein kinase kinase kinase 2 (Homo sapiens) (UniProt Q9Y2U5); assay: Inhibition of human MEKK2 assessed as residual activity at 1 uM using casein as substrate in presence of 33P-ATP by ProQinase assay relative to control
[20] = test system: Receptor-type tyrosine-protein kinase FLT3 (Homo sapiens), P36888 [D835Y]; assay: Inhibition of FLT3 D835Y mutant (unknown origin) assessed as remaining activity at 1 uM by Kinome scan method relative to control
[21] = test system: Tyrosine-protein kinase ABL1 (Homo sapiens), P00519 [T315I]; assay: Inhibition of human ABL1 T315I mutant assessed as residual activity at 1 uM using Poly(Ala,Glu,Lys,Tyr)6:2:5:1 as substrate in presence of 33P-ATP by ProQinase assay relative to control
[22] = target: Wee1-like protein kinase (Homo sapiens) (UniProt P30291); assay: Inhibition of human WEE1 assessed as residual activity at 1 uM using poly(Ala,Glu,Lys,Tyr)6:2:5:1 as substrate in presence of 33P-ATP by ProQinase assay relative to control
[23] = target: Serine/threonine-protein kinase OSR1 (Homo sapiens) (UniProt O95747); assay: Inhibition of OSR1 (unknown origin) assessed as remaining activity at 1 uM by Kinome scan method relative to control
[24] = Anti-inflammatory activity against human derived medium respond PBMC cells assessed as inhibition in stimulated IL-13 cytokine release incubated for 2 hrs in the presence of LPS/SEB/aCD28 by Luminex based sandwich immunoassay; format: functional, cell-based
[25] = target: cAMP-dependent protein kinase catalytic subunit PRKX (Homo sapiens) (UniProt P51817); assay: Inhibition of human PRKX assessed as residual activity at 1 uM using RBER-GSK3(14-27) as substrate in presence of 33P-ATP by ProQinase assay relative to control
[26] = test system: Phosphatidylinositol 4,5-bisphosphate 3-kinase catalytic subunit alpha isoform (Homo sapiens), P42336 [E545K]; assay: Inhibition of PIK3CA E545K mutant (unknown origin) assessed as remaining activity at 1 uM by Kinome scan method relative to control
[27] = target: Mitogen-activated protein kinase kinase kinase 11 (Homo sapiens) (UniProt Q16584); assay: Inhibition of MLK3 (unknown origin) assessed as remaining activity at 1 uM by Kinome scan method relative to control
[28] = target: Serine/threonine-protein kinase PAK 2 (Homo sapiens) (UniProt Q13177); assay: Inhibition of human PAK2 assessed as residual activity at 1 uM using bio-4xCHKT as substrate in presence of 33P-ATP by ProQinase assay relative to control

Sequence of Serine/threonine-protein kinase NIM1 (Homo sapiens) (Q8IY84 whole entry): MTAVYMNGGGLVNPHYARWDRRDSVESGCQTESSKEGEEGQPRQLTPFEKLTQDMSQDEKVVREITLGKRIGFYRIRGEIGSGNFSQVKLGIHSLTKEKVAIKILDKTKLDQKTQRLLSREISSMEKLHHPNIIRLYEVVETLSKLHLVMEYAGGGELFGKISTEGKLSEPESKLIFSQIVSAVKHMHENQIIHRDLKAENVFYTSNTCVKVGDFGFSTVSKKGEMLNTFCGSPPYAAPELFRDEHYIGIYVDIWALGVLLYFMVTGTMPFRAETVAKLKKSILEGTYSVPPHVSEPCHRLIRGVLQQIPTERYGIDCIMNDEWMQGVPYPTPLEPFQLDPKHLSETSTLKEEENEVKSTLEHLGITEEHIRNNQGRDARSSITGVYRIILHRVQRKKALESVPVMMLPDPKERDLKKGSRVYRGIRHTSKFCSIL
Sequence of Ephrin type-A receptor 7 (Homo sapiens) (Q15375 28-998 limits assumed): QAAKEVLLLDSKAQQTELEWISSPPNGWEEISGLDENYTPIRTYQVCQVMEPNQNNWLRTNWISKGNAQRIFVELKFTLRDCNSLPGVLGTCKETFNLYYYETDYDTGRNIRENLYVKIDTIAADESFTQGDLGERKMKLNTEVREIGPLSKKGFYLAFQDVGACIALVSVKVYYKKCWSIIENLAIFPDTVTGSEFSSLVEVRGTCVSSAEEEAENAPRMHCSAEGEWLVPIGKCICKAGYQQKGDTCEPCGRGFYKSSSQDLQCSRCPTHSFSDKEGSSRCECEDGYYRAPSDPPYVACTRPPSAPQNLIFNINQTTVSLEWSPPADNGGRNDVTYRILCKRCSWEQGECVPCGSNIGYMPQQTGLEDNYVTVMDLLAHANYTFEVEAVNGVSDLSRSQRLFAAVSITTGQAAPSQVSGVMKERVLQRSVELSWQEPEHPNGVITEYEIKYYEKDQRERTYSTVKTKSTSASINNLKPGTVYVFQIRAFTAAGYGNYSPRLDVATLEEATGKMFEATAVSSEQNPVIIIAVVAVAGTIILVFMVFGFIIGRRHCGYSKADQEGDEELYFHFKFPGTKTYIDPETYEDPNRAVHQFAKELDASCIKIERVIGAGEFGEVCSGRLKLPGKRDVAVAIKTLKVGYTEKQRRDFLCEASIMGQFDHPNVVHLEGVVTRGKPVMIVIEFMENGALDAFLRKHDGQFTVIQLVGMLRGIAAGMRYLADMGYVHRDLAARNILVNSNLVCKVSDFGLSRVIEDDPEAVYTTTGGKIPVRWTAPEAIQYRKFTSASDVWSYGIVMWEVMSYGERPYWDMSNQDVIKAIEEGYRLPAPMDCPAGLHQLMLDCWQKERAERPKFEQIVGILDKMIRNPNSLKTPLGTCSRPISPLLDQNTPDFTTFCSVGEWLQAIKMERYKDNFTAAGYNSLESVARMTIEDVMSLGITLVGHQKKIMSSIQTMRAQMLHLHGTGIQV
Sequence of Mitogen-activated protein kinase kinase kinase 11 (Homo sapiens) (Q16584 whole entry, looked up): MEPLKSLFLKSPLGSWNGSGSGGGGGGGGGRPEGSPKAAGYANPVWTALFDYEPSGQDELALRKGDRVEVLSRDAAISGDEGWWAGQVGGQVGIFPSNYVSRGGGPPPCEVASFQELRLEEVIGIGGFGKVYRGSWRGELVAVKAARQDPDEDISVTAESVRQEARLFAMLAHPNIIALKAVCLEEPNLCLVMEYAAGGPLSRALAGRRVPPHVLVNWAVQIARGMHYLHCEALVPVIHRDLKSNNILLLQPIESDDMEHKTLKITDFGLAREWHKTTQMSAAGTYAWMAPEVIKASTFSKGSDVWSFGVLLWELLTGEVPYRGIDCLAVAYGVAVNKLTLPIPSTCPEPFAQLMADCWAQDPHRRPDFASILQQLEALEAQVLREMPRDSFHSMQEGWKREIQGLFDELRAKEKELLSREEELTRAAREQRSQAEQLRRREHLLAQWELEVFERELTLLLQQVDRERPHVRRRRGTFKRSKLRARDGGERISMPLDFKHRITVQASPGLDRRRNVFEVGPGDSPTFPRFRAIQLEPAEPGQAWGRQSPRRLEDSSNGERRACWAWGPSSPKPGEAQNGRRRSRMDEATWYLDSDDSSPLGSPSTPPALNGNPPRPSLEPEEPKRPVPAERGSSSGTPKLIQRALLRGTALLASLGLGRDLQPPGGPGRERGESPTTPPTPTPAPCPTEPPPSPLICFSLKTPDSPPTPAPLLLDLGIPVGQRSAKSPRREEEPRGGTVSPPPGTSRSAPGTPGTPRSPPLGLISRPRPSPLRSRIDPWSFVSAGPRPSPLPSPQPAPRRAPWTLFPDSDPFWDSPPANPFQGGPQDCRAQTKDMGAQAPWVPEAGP
Sequence of Homeodomain-interacting protein kinase 1 (Homo sapiens) (Q86Z02 whole entry, looked up): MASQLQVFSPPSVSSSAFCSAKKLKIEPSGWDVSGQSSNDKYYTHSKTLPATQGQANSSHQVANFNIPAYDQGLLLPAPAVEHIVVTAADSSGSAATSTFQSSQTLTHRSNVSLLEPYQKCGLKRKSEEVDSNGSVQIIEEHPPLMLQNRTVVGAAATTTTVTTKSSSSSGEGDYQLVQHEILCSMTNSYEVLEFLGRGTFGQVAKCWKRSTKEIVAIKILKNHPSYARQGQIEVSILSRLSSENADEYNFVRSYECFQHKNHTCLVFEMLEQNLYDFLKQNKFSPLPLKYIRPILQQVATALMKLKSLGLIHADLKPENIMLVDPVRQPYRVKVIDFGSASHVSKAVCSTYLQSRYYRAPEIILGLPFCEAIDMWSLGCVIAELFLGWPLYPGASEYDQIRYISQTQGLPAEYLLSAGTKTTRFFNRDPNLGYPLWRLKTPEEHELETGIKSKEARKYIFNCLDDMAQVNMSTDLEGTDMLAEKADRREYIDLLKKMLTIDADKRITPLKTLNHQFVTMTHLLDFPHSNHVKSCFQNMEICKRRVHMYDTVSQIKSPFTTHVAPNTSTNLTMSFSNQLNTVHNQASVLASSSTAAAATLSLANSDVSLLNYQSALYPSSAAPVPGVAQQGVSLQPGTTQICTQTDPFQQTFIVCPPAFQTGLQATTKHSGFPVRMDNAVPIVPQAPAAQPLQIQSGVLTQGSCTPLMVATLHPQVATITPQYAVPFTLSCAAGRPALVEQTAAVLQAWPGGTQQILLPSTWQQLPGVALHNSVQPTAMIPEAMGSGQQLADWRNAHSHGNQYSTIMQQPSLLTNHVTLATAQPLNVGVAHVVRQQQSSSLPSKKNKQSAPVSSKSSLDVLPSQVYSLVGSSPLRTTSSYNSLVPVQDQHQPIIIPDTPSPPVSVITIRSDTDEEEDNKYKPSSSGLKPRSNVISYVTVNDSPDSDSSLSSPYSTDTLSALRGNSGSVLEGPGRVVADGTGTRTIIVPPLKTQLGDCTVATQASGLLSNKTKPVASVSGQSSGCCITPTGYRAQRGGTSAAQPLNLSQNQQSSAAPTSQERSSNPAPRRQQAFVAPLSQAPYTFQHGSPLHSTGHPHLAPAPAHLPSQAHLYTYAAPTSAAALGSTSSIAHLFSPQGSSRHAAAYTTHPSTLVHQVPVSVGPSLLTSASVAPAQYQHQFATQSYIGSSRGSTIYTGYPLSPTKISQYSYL
Sequence of Mast/stem cell growth factor receptor Kit (Homo sapiens), P10721 [V559D,T670I] (P10721 whole entry V559D/T670I): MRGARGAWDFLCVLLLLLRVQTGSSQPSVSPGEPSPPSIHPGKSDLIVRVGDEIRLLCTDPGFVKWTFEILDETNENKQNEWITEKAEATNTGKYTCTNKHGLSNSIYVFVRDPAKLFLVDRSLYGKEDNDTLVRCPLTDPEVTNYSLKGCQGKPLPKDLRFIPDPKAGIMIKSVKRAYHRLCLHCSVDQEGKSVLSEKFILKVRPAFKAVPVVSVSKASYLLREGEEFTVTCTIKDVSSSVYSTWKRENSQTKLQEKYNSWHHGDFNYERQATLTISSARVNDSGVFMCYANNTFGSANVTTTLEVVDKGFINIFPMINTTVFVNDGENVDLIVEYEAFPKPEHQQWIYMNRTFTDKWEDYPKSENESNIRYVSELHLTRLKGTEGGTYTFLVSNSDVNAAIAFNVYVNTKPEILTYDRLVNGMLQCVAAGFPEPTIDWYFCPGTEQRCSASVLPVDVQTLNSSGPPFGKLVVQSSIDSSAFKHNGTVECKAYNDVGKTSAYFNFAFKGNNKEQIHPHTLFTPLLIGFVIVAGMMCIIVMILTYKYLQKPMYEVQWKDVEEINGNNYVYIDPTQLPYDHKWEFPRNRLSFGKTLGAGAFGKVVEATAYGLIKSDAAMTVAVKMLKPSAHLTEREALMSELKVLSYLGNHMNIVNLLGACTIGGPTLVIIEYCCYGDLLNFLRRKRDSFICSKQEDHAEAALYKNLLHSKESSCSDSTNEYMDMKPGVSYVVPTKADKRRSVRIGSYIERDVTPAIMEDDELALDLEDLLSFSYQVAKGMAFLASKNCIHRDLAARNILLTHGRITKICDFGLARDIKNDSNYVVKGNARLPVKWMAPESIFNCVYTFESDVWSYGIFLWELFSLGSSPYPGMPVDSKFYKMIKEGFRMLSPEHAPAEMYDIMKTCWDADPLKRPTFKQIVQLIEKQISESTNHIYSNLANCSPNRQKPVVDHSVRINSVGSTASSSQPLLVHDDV
Sequence of cAMP-dependent protein kinase catalytic subunit PRKX (Homo sapiens) (P51817 whole entry, canonical isoform): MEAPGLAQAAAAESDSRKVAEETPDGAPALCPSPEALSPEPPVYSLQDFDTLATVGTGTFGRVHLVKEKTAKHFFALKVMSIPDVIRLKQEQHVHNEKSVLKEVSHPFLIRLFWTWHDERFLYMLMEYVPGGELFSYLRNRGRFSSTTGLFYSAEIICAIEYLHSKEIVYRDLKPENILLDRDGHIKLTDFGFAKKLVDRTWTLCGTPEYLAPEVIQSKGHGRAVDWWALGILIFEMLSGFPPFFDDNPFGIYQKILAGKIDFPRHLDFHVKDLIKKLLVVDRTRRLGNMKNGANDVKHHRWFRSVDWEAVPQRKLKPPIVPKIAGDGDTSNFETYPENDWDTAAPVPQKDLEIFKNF

O=C1c2ccc(Nc3ccc(F)cc3F)cc2CCc2ccc(OC[C@H](O)CO)cc21 [Skepinone-L]
Activity [1]: 100% | Activity [2]: 104% | Activity [3]: 100% | Activity [4]: 102% | Activity [5]: 104% | Activity [6]: 81% | Activity [7]: 100% | Activity [8]: 100% | Activity [9]: 94% | Activity [10]: 109% | Activity [11]: 82% | Activity [12]: 108% | Activity [13]: 100% | Activity [14]: 89% | Activity [15]: 100% | Activity [16]: 100% | Activity [17]: 103% | Activity [18]: 84% | Activity [19]: 89% | Activity [20]: 98% | Activity [21]: 93% | Activity [22]: 88% | Activity [23]: 100% | IC50 [24]: 4.38 µM | Activity [25]: 79% | Activity [26]: 100% | Activity [27]: 96% | Activity [28]: 83%
